{"source": "paper PMC7613620", "about": "“Reaction hijacking of tyrosine tRNA synthetase as a whole-of-life-cycle antimalarial strategy” (Science (New York, N.Y.), 2022)", "type_in_all_cases": "cell-based, Plasmodium falciparum", "key": {"[1]": {"tested_on": "protein translation in P. falciparum (Cam3.II-rev) schizonts", "test": "Protein translation assay (O-propargyl-puromycin incorporation)", "details": "read-out: IC50 (Translation)", "method": "(§1) 723 then fixed for 10 minutes (4% formaldehyde/0.02% glutaraldehyde in PBS). The click reaction was\n(§2) 724 performed for 1 h in the presence of CuSO4 (0.1 mM), THPTA (0.5 mM) and sodium ascorbate (5 mM) to\n(§3) 725 bring about azide-alkyne cycloaddition to Alexa Fluor 488 azide (0.1 µM). Flow cytometry was performed\n(§4) 726 using the FITC and Cy™5.5 channels to detect the Alexa Fluor 488 and PI, respectively.\n(§5) 729 Cam 3.II_Rev (25) trophozoite-infected RBCs (25-30 h p.i.) were incubated with inhibitor for 3 h at 10%\n(§6) 730 hematocrit and 5% parasitemia. The RBC pellet was washed 3 x in PBS + cOmplete. Cells were centrifuged\n(§7) 731 at 380 x g for 5 min and the pelleted cells lysed by resuspension in PBS + 0.05% saponin for 5 min on ice."}, "[2]": {"tested_on": "P. falciparum (Cam3.II-rev) schizont stage", "test": "3 h drug pulse viability assay", "details": "read-out: IC50 (Viability)", "method": "553 Sigma-Aldrich) for 48-72 h. For drug pulse assays, tightly synchronized parasites (1-1.5% parasitemia,\n554 0.2% final hematocrit) were added to the plates and incubated for 3 h. Drugs were removed and the\n555 parasitemia assessed in the trophozoite stage of the next cycle.\n557 Compounds were tested against a range of drug resistant field isolates and laboratory strains using a\n558 modified [3H]-hypoxanthine incorporation assay, as previously reported (46). Field isolates 7G8, Cam3.1,\n559 Dd2, K1, TM90C2B and NF54 were obtained from MR4 (www.beiresources.org).\n561 Mammalian cell culture experiments\n562 The HepG2 (Human hepatocyte carcinoma) cell line was procured from ATCC (American Type\n563 Culture Collection, Manassas, USA; HB-8065) and viability assessed using Cell Titer-GLO luminescent\n564 cell viability assay reagents (Promega, catalogue number: G7570) (47, 48). For the assay, 2000 cells/well\n565 were plated in 384-well plates 24 h prior to the experiment and incubated at 37°C in a CO2 incubator. The\n566 medium was removed and cells were treated with fresh medium containing either vehicle (0.5% DMSO)\n567 or serially diluted test compounds or doxorubicin (1.3 nM to 25 µM) in a final volume of 50 µl/well and\n568 further incubated for 72 h at 37°C in a CO2 incubator.\n569 were treated with 5 µl of 1% Triton X-100 (final assay conc. 0.1%). Following incubation, 25 µl of medium\n570 was discarded and 25 µl of Cell Titer-GLO reagent was added to each well and the plate was kept on a plate\n571 shaker for 15 min at 25°C with shaking at 300 rpm. Luminescence signals were measured in a Spectramax\n572 M5 reader (Molecular Devices).\n574 H1650 is a human lung cancer derived ATG7-null cell line (49) that can be used to assess effects on targets\n576 adenocarcinoma; bronchoalveolar carcinoma). Other cells lines used are: H460 (NCI-H460; human lung;\n577 carcinoma; large cell lung cancer; ATCC: HTB-177); and HCT116 (human colon; colorectal carcinoma;\n578 ATCC: CCL-247; Lot : 5056139). […]\n580 inhibitors and cell viability was assessed by comparing the ATP content in compound-treated wells with […]"}, "PfYRS knockdown line": {"tested_on": "PfYRS knockdown line", "test": "Growth inhibition of aptamer-regulatable PfYRS knockdown line (luciferase, 72 h)", "details": "for IC50: Plasmodium falciparum, read-out: IC50 against the PfYRS knockdown line (control compounds)", "text": "674 Generation and analysis of PfYRS knock-down transfectants\n675 A conditional regulatable line for the cytosolic PfYRS (PF3D7_0807900) was generated by integrating the\n676 gene regulatable system, TetR-DOZI-RNA aptamer module at the 3'-end of the target gene, in P. falciparum\n677 parasites using CRISPR-Cas9 and homology-driven repair (55, 56). A line harbourbing an aptamer-\n678 regulatable fluorescent protein (eYFP) integrated in the cg6 locus is used as the control (55). Transfection\n679 into parasites was carried out by preloading RBCs with the donor vector as described previously (57).\n680 Briefly, 50 μg of purified plasmid DNA was mixed with human RBCs and subjected to 8 square wave\n681 electroporation pulses of 365 V for 1 ms each, separated by 0.1 s in a 0.2 cm cuvette. The plasmid DNA\n682 preloaded cells were inoculated with NF54 expressing Cas9 and T7 RNA polymerase. […]\n696 Stock solutions of ML901, DHA or borrelidin (Cayman Chemicals) were dispensed into 96-well U-bottom\n697 BD Falcon™ plates and serially diluted in complete medium to yield final concentrations ranging from 20-\n698 0.08 nM. Synchronous ring-stage YRScyt conditional knockdown line and the aptamer-regulatable control\n699 line in varying aTc concentrations (high = 50 or 500 nM, low = 1 nM, and no aTc) were distributed into\n700 the drug plate. Lowest drug treatment and a lethal dose of chloroquine (200 nM) served as reference\n701 controls. Growth inhibition was analysed after 72 h using the Renilla-Glo(R) Luciferase Assay System (ref\n702 no E2750 Promega) and the GloMax® Discover Multimode Microplate Reader (Promega), and IC50 values\n703 were obtained from corrected dose-response curves using GraphPad Prism (version 8; GraphPad Software). […]\n706 CRISPR/Cas9 was used to generate parasites encoding the S234C mutation in exon 2 of PfYRS, as shown\n707 in Suppl Figure 6. Two guide RNAs (gRNA1: […] and gRNA2:\n708 […]) were selected using Benchling (benchling.com), and cloned into the\n709 pDC2-coCas9-gRNA plasmid essentially as described previously (58). A donor template of 645 bp,\n710 encompassing the majority of the 708 bp exon 2, was synthesized (ThermoFisher) and cloned into the\n711 AatII/EcoRI sites of both the pDC2-coCas9-gRNA1 and pDC2-coCas9-gRNA2 plasmids. In addition to\n712 the TCC>TGC (S234C) mutation, additional silent shield mutations were introduced to prevent gRNA-\n713 Cas9 complex binding, as shown in Suppl Figure 6. Ring-stage P. falciparum parasites (Dd2 strain) at 10%\n714 parasitemia (150 µL of packed cells) were transfected with 50 µg of plasmid DNA using a BioRad Gene\n715 Pulser II (310 V, 950 µF), and selected with 5 nM WR99210 (Jacobus Pharmaceuticals) for 8 days, after\n716 which culture was continued without drug pressure until transfectants were obtained. Clones of the\n717 PfYRSS234C mutant parasites were isolated by limiting dilution and verified by Sanger sequencing.\n719 Protein translation assay\n720 P. falciparum Cam 3.II_Rev (25) schizont- (43-48 h p.i.) infected RBCs were pre-incubated with inhibitor\nUsing a modification of a published procedure (14), the\n722 cells were labelled with O-propargyl-puromycin (OPP; 4 µM) for 1 h, washed 3x (PBS +3% serum) and\nas §1, §2, §3, §4, §5, §6, §7"}}, "note": "Read-outs that look alike come from different tables or passages of the source.", "data": [{"compound": "CC1(C)N=C(N)N=C(N)N1OCCCOc1cc(Cl)c(Cl)cc1Cl", "note": "[WR99210]", "values": [{"measurement": "IC50", "setting": "[1]; schizont stage Cam3.II-rev, 1 h pre-incubation then OPP incorporation over next 2 h", "result": "> 1000", "unit": "nM"}, {"measurement": "IC50", "setting": "[2]; schizont stage Cam3.II-rev, 3 h exposure, viability at trophozoite stage of next cycle", "result": 1.9, "unit": "nM"}]}, {"compound": "C[C@@H]1C[C@H](C)C[C@H](C)[C@@H](O)CC(=O)O[C@H]([C@@H]2CCC[C@H]2C(=O)O)C/C=C/C=C(/C#N)[C@H](O)[C@@H](C)C1", "note": "[borrelidin]", "values": [{"measurement": "IC50", "setting": "PfYRS knockdown line; high aTc (500 nM)", "result": 0.07, "unit": "nM"}, {"measurement": "IC50", "setting": "PfYRS knockdown line; low aTc (1 nM)", "result": "0.07 ± 0.01", "unit": "nM"}, {"measurement": "IC50", "setting": "PfYRS knockdown line; no aTc", "result": "0.07 ± 0.01", "unit": "nM"}, {"measurement": "Fold change in IC50 (high aTc/ no aTc), PfYRS knockdown line (control compounds)", "setting": "PfYRS knockdown line; high aTc 500 nM", "result": "no change"}]}, {"compound": "C[C@@H]1C[C@@H]([C@H](O)CC2CC(=O)NC(=O)C2)C(=O)[C@@H](C)C1", "note": "[cycloheximide]", "values": [{"measurement": "IC50", "setting": "[1]; Plasmodium falciparum", "result": 2000, "unit": "nM"}, {"measurement": "IC50", "setting": "[2]; Plasmodium falciparum, 3 h", "result": 3200, "unit": "nM"}]}]}
